In ChEMBL document CHEMBL1201862, “PubChem BioAssay data set” (2004):
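Following 48 hours of exposure in 96-well plates, responses at five concentrations were used to interpolate endpoints linearly. GI50 = concentration required for 50% inhibition of growth.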 The source made the active and inactive calls. No stated cut-off is given here; in the data, active = GI50 up to about 1.1 µM and inactive = higher.

Legend:
Test in all cases: NCI anticancer screen, dose series, 48 h
M14 = tested on: M14
NCI-H522 = tested on: NCI-H522
RPMI-8226 = tested on: RPMI-8226
UO-31 = tested on: UO-31
OVCAR-4 = tested on: OVCAR-4
SK-MEL-5 = tested on: SK-MEL-5
SNB-75 = tested on: SNB-75
UACC-257 = tested on: UACC-257
MOLT-4 = tested on: MOLT-4
786-0 = tested on: 786-0
SF-539 = tested on: SF-539
HCC 2998 = tested on: HCC 2998
HL-60 = tested on: HL-60
LOX IMVI = tested on: LOX IMVI
PC-3 = tested on: PC-3
T47D = tested on: T47D
NCI-H226 = tested on: NCI-H226
KM12 = tested on: KM12
SR = tested on: SR
OVCAR-3 = tested on: OVCAR-3

| SMILES | GI50 (M14) | GI50 (NCI-H522) | GI50 (RPMI-8226) | GI50 (UO-31) | GI50 (OVCAR-4) | GI50 (SK-MEL-5) | GI50 (SNB-75) | GI50 (UACC-257) | GI50 (MOLT-4) | GI50 (786-0) | GI50 (SF-539) | GI50 (HCC 2998) | GI50 (HL-60) | GI50 (LOX IMVI) | GI50 (PC-3) | GI50 (T47D) | GI50 (NCI-H226) | GI50 (KM12) | GI50 (SR) | GI50 (OVCAR-3) |
| --- | --- | --- | --- | --- | --- | --- | --- | --- | --- | --- | --- | --- | --- | --- | --- | --- | --- | --- | --- | --- |
| C=C(c1ccccc1)[C@@]1(O)CC[C@@H]1N(CC#N)Cc1ccccc1 | 17.3 µM (inactive) | 20.6 µM (inactive) | 20 µM (inactive) | 26.7 µM (inactive) | 15.3 µM (inactive) | 15.9 µM (inactive) | 33.9 µM (inactive) | 17.8 µM (inactive) | 26.3 µM (inactive) | 18.4 µM (inactive) | 29.2 µM (inactive) | 21.2 µM (inactive) | 32 µM (inactive) | 19.1 µM (inactive) | 22.9 µM (inactive) | 16.3 µM (inactive) | 35.2 µM (inactive) | 28.6 µM (inactive) | 37.2 µM (inactive) | 12.3 µM (inactive) |
| COc1ccc(C2CC(c3c(C)nn(-c4ccccc4)c3-c3ccc(C)cc3O)=NN2c2ccccc2)cc1 (stereo not given) | 14.2 µM (inactive) | 24.8 µM (inactive) | 4.81 µM (inactive) | 24.7 µM (inactive) | > 45.7 µM (inactive) | 18.5 µM (inactive) | 5.04 µM (inactive) | 67.3 µM (inactive) | 4.65 µM (inactive) | > 100 µM (inactive) | > 78.5 µM (inactive) | 12 µM (inactive) | 9.27 µM (inactive) | > 30.1 µM (inactive) | 3.78 µM (inactive) | 9.57 µM (inactive) | > 24 µM (inactive) | 3.33 µM (inactive) | 13.3 µM (inactive) | > 50.5 µM (inactive) |
| CC1=CC(=O)c2cccc(O)c2C1=O | 1.81 µM (inactive) | 2.25 µM (inactive) | 3.53 µM (inactive) | 1.79 µM (inactive) | 1.92 µM (inactive) | 1.79 µM (inactive) | 8.73 µM (inactive) | 1.79 µM (inactive) | 0.473 µM (active) | 1.7 µM (inactive) | 5.7 µM (inactive) | 8.57 µM (inactive) | 0.935 µM (active) | 2.52 µM (inactive) | 2.1 µM (inactive) | 1.77 µM (inactive) | 7.28 µM (inactive) | 12.6 µM (inactive) | 1.8 µM (inactive) | 1.53 µM (inactive) |
| O=c1c2cc([N+](=O)[O-])ccc2n(Cc2ccccc2)n1Cc1ccccc1 | 13.1 µM (inactive) | 12 µM (inactive) | 7.41 µM (inactive) | 12.4 µM (inactive) | 12.3 µM (inactive) | 4.75 µM (inactive) | 10.4 µM (inactive) | 10.8 µM (inactive) | 11.8 µM (inactive) | 21.7 µM (inactive) | 19.2 µM (inactive) | 17.9 µM (inactive) | 10.3 µM (inactive) | 9.2 µM (inactive) | 12 µM (inactive) | 10.9 µM (inactive) | 12.7 µM (inactive) | 10.5 µM (inactive) | 14 µM (inactive) | 15.6 µM (inactive) |
| Cc1ccc(-c2n[nH]c(=O)n2N)cc1 | > 100 µM (inactive) | > 100 µM (inactive) | > 100 µM (inactive) | > 100 µM (inactive) | > 100 µM (inactive) | > 100 µM (inactive) | 48 µM (inactive) | > 100 µM (inactive) | > 100 µM (inactive) | > 100 µM (inactive) | > 100 µM (inactive) | > 100 µM (inactive) | > 100 µM (inactive) | > 100 µM (inactive) | > 100 µM (inactive) | > 100 µM (inactive) | > 100 µM (inactive) | > 100 µM (inactive) | > 100 µM (inactive) | > 100 µM (inactive) |
| CCOC(=O)CC[C@H](N)C(=O)N[C@@H](Cc1ccc(N(CCCl)CCCl)cc1)C(=O)OCC | 0.261 µM (active) | 1.12 µM (active) | 2.54 µM (inactive) | 0.807 µM (active) | 0.565 µM (active) | 1.5 µM (inactive) | 1.22 µM (inactive) | 1.5 µM (inactive) | 0.0345 µM (active) | 0.685 µM (active) | 0.706 µM (active) | 1.25 µM (inactive) | 0.0705 µM (active) | 0.184 µM (active) | 1.29 µM (inactive) | 0.718 µM (active) | 11.1 µM (inactive) | 4.61 µM (inactive) | < 0.0201 µM (active) | 0.652 µM (active) |
| CC1(C)CC23CC(C)(C)c4cccc(c42)OCc2ccc4ccc5ccc(nc5c4n2)COc2cccc1c23 | > 50 µM (inactive) | > 50 µM (inactive) | > 50 µM (inactive) | > 50 µM (inactive) | > 50 µM (inactive) | > 50 µM (inactive) | > 50 µM (inactive) | > 50 µM (inactive) | > 50 µM (inactive) | > 50 µM (inactive) | > 50 µM (inactive) | > 50 µM (inactive) | > 50 µM (inactive) | > 50 µM (inactive) | > 50 µM (inactive) | > 50 µM (inactive) | > 50 µM (inactive) | > 50 µM (inactive) | > 50 µM (inactive) | > 50 µM (inactive) |
| CC(C)=C[C@H]1C[C@H](C)[C@H]2CC[C@H](C)c3c2c1c(C)c1ncoc31 | 15 µM (inactive) | 16 µM (inactive) | 12.2 µM (inactive) | 17.6 µM (inactive) | 19.2 µM (inactive) | 13.9 µM (inactive) | 18.8 µM (inactive) | 18.4 µM (inactive) | 14.1 µM (inactive) | 18.5 µM (inactive) | 16.4 µM (inactive) | 20 µM (inactive) | 11.5 µM (inactive) | 20.1 µM (inactive) | 17 µM (inactive) | 17.8 µM (inactive) | 16.8 µM (inactive) | 17.7 µM (inactive) | 14.1 µM (inactive) | 15.1 µM (inactive) |
| CC(=O)OCC1OC(N2C(c3ccccc3)=CC(c3ccco3)C(C#N)=C2S)C(OC(C)=O)C(OC(C)=O)C1OC(C)=O (stereo not given) | 4.65 µM (inactive) | 16.6 µM (inactive) | 9.1 µM (inactive) | 9.23 µM (inactive) | 3.33 µM (inactive) | 3.01 µM (inactive) | 2.55 µM (inactive) | > 32.1 µM (inactive) | > 22.2 µM (inactive) | 2.03 µM (inactive) | 2.06 µM (inactive) | 14.8 µM (inactive) | 10.4 µM (inactive) | 5.74 µM (inactive) | 11.5 µM (inactive) | 30.4 µM (inactive) | 6.71 µM (inactive) | 15.3 µM (inactive) | 7.85 µM (inactive) | 5.75 µM (inactive) |
| COC(=O)C(=O)C(C(=O)OC)C(=O)C(=O)Nc1ccccc1C(N)=O (stereo not given) | > 100 µM (inactive) | > 100 µM (inactive) | > 100 µM (inactive) | > 100 µM (inactive) | 66.5 µM (inactive) | > 100 µM (inactive) | > 100 µM (inactive) | > 100 µM (inactive) | > 100 µM (inactive) | > 100 µM (inactive) | > 100 µM (inactive) | > 100 µM (inactive) | > 100 µM (inactive) | > 100 µM (inactive) | > 100 µM (inactive) | > 100 µM (inactive) | > 100 µM (inactive) | > 100 µM (inactive) | > 100 µM (inactive) | > 100 µM (inactive) |
